Assay results from the supplement of paper PMC10307832.

Columns and labels:
Assay in all cases: relative viability (nuclei count vs DMSO), 5 days (fraction); higher = more cells survive
Alisertib + Navitoclax = compound: COc1cc(Nc2ncc3c(n2)-c2ccc(Cl)cc2C(c2c(F)cccc2OC)=NC3)ccc1C(=O)O [Alisertib] + CC1(C)CCC(c2ccc(Cl)cc2)=C(CN2CCN(c3ccc(C(=O)NS(=O)(=O)c4ccc(N[C@H](CCN5CCOCC5)CSc5ccccc5)c(S(=O)(=O)C(F)(F)F)c4)cc3)CC2)C1 [Navitoclax] (partner 0.5 µM)
In short: (§1)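 Lung cancer cell lines were pin-tool dosed in 1536-well plates on the day after seeding, with either a lone drug or a fixed anchor-drug dose plus five library-drug doses (not always all listed) in √10 steps. Nuclei were counted on 4× images after 5 days. Relative viability is the ratio of treated-well to vehicle-well nuclei counts, with each value a median of duplicate plates.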

Alisertib + Luminespib = compound: COc1cc(Nc2ncc3c(n2)-c2ccc(Cl)cc2C(c2c(F)cccc2OC)=NC3)ccc1C(=O)O [Alisertib] + CCNC(=O)c1noc(-c2cc(C(C)C)c(O)cc2O)c1-c1ccc(CN2CCOCC2)cc1 [Luminespib] (partner 0.01 µM)
In short: as §1

Alisertib + Foretinib = compound: COc1cc(Nc2ncc3c(n2)-c2ccc(Cl)cc2C(c2c(F)cccc2OC)=NC3)ccc1C(=O)O [Alisertib] + COc1cc2c(Oc3ccc(NC(=O)C4(C(=O)Nc5ccc(F)cc5)CC4)cc3F)ccnc2cc1OCCCN1CCOCC1 [Foretinib] (partner 0.25 µM)
In short: as §1

Alisertib + Linsitinib = compound: COc1cc(Nc2ncc3c(n2)-c2ccc(Cl)cc2C(c2c(F)cccc2OC)=NC3)ccc1C(=O)O [Alisertib] + C[C@]1(O)C[C@@H](c2nc(-c3ccc4ccc(-c5ccccc5)nc4c3)c3c(N)nccn32)C1 [Linsitinib] (partner 1 µM)
In short: as §1

Cell Line	relative viability (Alisertib + Navitoclax; first compound 0.01581 µM)	relative viability (Alisertib + Navitoclax; first compound 0.05 µM)	relative viability (Alisertib + Navitoclax; first compound 0.1581 µM)	relative viability (Alisertib + Navitoclax; first compound 0.5 µM)	relative viability (Alisertib + Luminespib; first compound 0.005 µM)	relative viability (Alisertib + Luminespib; first compound 0.01581 µM)	relative viability (Alisertib + Luminespib; first compound 0.05 µM)	relative viability (Alisertib + Luminespib; first compound 0.1581 µM)	relative viability (Alisertib + Luminespib; first compound 0.5 µM)	relative viability (Alisertib + Foretinib; first compound 0.005 µM)	relative viability (Alisertib + Foretinib; first compound 0.01581 µM)	relative viability (Alisertib + Foretinib; first compound 0.05 µM)	relative viability (Alisertib + Foretinib; first compound 0.1581 µM)	relative viability (Alisertib + Foretinib; first compound 0.5 µM)	relative viability (Alisertib + Linsitinib; first compound 0.01581 µM)	relative viability (Alisertib + Linsitinib; first compound 0.05 µM)	relative viability (Alisertib + Linsitinib; first compound 0.1581 µM)	relative viability (Alisertib + Linsitinib; first compound 0.5 µM)	relative viability (Alisertib + Navitoclax; first compound 0.005 µM)	relative viability (Alisertib + Linsitinib; first compound 0.005 µM)
NCI-H596	0.906	1.07	0.808	0.199	0.839	0.977	1.05	0.505	0.412	0.87	0.804	0.762	0.175	0.395	1.02	0.969	0.967	0.404	–	–
NCI-H647	1.06	0.293	0.169	0.0658	0.151	0.132	0.0794	0.0983	0.0961	1.08	1.04	0.691	0.301	0.131	0.883	0.373	0.287	0.0691	1.05	1.15
NCI-H727	0.477	0.183	0.166	0.152	0.366	0.325	0.557	0.24	0.169	0.658	0.922	0.488	0.352	0.417	0.366	0.216	0.242	0.194	0.389	0.415
NCI-H838	1.1	0.667	0.306	0.169	0.386	0.343	0.252	0.135	0.133	1.03	0.971	0.605	0.394	0.202	0.845	0.573	0.278	0.202	1.12	0.962
NCI-H1355	0.923	0.633	0.205	0.16	0.67	0.37	0.221	0.183	0.217	0.88	0.892	0.343	0.244	0.202	0.8	0.394	0.22	0.154	0.884	0.791
NCI-H1395	1.12	0.935	0.459	0.471	0.78	0.561	0.566	0.342	0.343	0.895	0.916	0.696	0.561	0.38	1.02	0.716	0.509	0.488	1.12	1.18
NCI-H1437	0.892	0.498	0.282	0.144	1.01	0.919	0.707	0.462	0.237	1.08	0.939	0.796	0.454	0.236	0.775	0.365	0.15	0.104	1.02	0.951
NCI-H1651	0.832	0.517	0.14	0.2	0.81	0.782	0.306	0.263	0.169	0.907	0.571	0.445	0.338	0.195	0.774	0.451	0.217	0.22	1.01	0.843
